Results as given in US20220330549A1, “USE OF N-BENZYLBENZAMIDE-BASED COMPOUND AS HERBICIDE” (Northwest A&F University, priority 2020, published 2022).

What was measured:
Format in all cases: in vivo
[1] = system: Barnyard grass; assay: Herbicidal activity test for indoor pre-emergence soil treatment; design: key: level 1-9; higher = more weed remaining vs blank control; conditions: 150 g a.i./ha, visual inspection 21 days after treatment
In short: (§1)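 Compounds were formulated as 10% emulsifiable concentrates and sprayed onto the soil 24 h after sowing, at 150 g(a.i.)/ha. Soil was sandy loam (≤2% organic matter), with seeds under 0.5–2.0 cm cover, per NY/T 1155.3-2006. Visual 1–9 ratings relative to blank control were made after 21 days.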

[2] = system: Piemarker; assay: as above; design: key: level 1-9; higher = more weed remaining vs blank control; conditions: 150 g a.i./ha, visual inspection 21 days after treatment
In short: as §1

[3] = system: green bristlegrass; assay: as above; design: key: level 1-9; higher = more weed remaining vs blank control; conditions: 150 g a.i./ha, visual inspection 21 days after treatment
In short: as §1

[4] = system: Amaranthus retroflexus; assay: as above; design: key: 1-9 levels; higher = more weed remaining vs blank control; conditions: 150 g a.i./ha, visual inspection 21 days after treatment
In short: as §1

[5] = system: Digitaria sanguinalis; assay: as above; design: key: 1-9 levels; higher = more weed remaining vs blank control; conditions: 150 g a.i./ha, visual inspection 21 days after treatment
In short: as §1

[6] = system: Humulus scandens; assay: as above; conditions: 150 g a.i./ha, visual inspection 21 days after treatment
In short: as §1

[7] = system: Amaranthus retroflexus; assay: Herbicidal activity test for indoor post-emergence spraying on stems and leaves; design: key: grade level by weed remaining vs blank control, e.g. 5 = 10.1-15%; conditions: 150 g a.i./ha, visual inspection 21 days after treatment
In short: (§2)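 Weeds were grown in a greenhouse from seed and treated by foliar spraying after emergence, per the NY/T 1155.4-2006 method. Visual grading at 21 days: each level reflects the share of weed remaining versus the untreated blank control area.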

[8] = system: Barnyard grass; assay: as above; design: key: grade level by weed remaining vs blank control, e.g. 5 = 10.1-15%; conditions: 150 g a.i./ha, visual inspection 21 days after treatment
In short: as §2

[9] = system: Digitaria sanguinalis; assay: as above; design: key: grade level by weed remaining vs blank control, e.g. 5 = 10.1-15%; conditions: 150 g a.i./ha, visual inspection 21 days after treatment
In short: as §2

[10] = system: Humulus scandens; assay: as above; design: key: grade level by weed remaining vs blank control, e.g. 5 = 10.1-15%; conditions: 150 g a.i./ha, visual inspection 21 days after treatment
In short: as §2

[11] = system: Piemarker; assay: as above; design: key: grade level by weed remaining vs blank control, e.g. 5 = 10.1-15%; conditions: 150 g a.i./ha, visual inspection 21 days after treatment
In short: as §2

[12] = system: green bristlegrass; assay: as above; design: key: grade level by weed remaining vs blank control, e.g. 5 = 10.1-15%; conditions: 150 g a.i./ha, visual inspection 21 days after treatment
In short: as §2

[13] = system: Broadleaf weed; assay: Post-emergence herbicidal activity test in a paddy field; design: key: level scale; higher level = more weed left vs blank control; conditions: 150 g a.i./ha (penoxsulam control 250 g(a.i.)/h)
In short: (§3)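 Efficacy was visually estimated 15 and 30 days after spraying, grading weed coverage relative to an untreated neighbouring plot (level 2 = 0 to 2.5%, level 9 = 67.6 to 100%). Treatments were 150 g(a.i.)/ha from 10% emulsifiable concentrates applied at the 4-5 leaf rice stage, four repeats of 50 m^2 each.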

[14] = system: Cyperaceae; assay: as above; design: key: level scale; higher level = more weed left vs blank control; conditions: 150 g a.i./ha (penoxsulam control 250 g(a.i.)/h)
In short: as §3

[15] = system: Gramineae; assay: as above; design: key: level scale; higher level = more weed left vs blank control; conditions: 150 g a.i./ha (penoxsulam control 250 g(a.i.)/h)
In short: as §3

[16] = system: Acalypha australis; assay: Field test for weed control in a corn field; conditions: 150 g a.i./ha, after treatment
In short: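 Herbicidal activity against weeds was assessed in corn plots by the GB/T 17980.42-2000 method. Corn at the 2–5 leaf stage received water sprays of 10% emulsifiable concentrates at 150 g(a.i.)/ha, four repeats per treatment over 20 m^2. A 25% mesotrione oil dispersion was the reference. Damage symptoms and severity were rated on levels 1-9 relative to weeds in the blank control area.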

[17] = system: Amaranthus retroflexus; assay: Field test for weed control in a corn field; conditions: 150 g a.i./ha, 30 days after treatment
In short: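 Post-emergence control of Amaranthus retroflexus was assessed in corn plots using the GB/T 17980.42-2000 method. Emulsifiable concentrates (10%) in water were applied by spraying at the 2- to 5-leaf crop stage on 20 m^2 plots, four replicates each, alongside a mesotrione 25% oil dispersion reference. Herbicidal activity was scored on 1-9 levels by weed amount relative to blank control areas.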

[18] = system: Barnyard grass; assay: Field test for weed control in a corn field; conditions: 150 g a.i./ha, 30 days after treatment
In short: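 Herbicidal activity against barnyard grass was assessed in corn field plots of 20 m^2, with four replicates per treatment. Compounds were applied as water-diluted 10% emulsifiable concentrates at 150 g(a.i.)/ha at the 2-5 leaf corn stage, with 25% mesotrione oil dispersion as the reference agent. Damage was scored on a 1-9 scale against untreated blank plots.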

[19] = system: Chenopodium album; assay: Field test for weed control in a corn field; conditions: 150 g a.i./ha, after treatment
In short: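 Field weed-control testing in corn, run per GB/T 17980.42-2000, scored Chenopodium album on a 1-9 level scale, where each level matches a percentage range of weed remaining relative to the blank control area. Sprays of 10% emulsifiable concentrates in water delivered 150 g(a.i.)/ha at the corn 2-leaf to 5-leaf stage on 20 m^2 plots, four replicates each. Mesotrione 25% oil dispersion served as reference.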

[20] = system: Convolvulus arvensis; assay: Field test for weed control in a corn field; conditions: 150 g a.i./ha, after treatment
In short: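 Post-emergence herbicidal activity on Convolvulus arvensis was scored in a corn field on a 1-9 scale, based on symptoms and damage severity. Each level corresponds to the weed remaining as a percentage of the blank control area. Sprays of 10% emulsifiable concentrate at 150 g(a.i.)/ha went on at the corn 2–5 leaf stage, with four replicates of 20 m^2 per treatment.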

[21] = system: Digitaria sanguinalis; assay: Field test for weed control in a corn field; conditions: 150 g a.i./ha, after treatment
In short: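 Field trial in a corn field following GB/T 17980.42-2000. Test compounds were formulated as 10% emulsifiable concentrates, diluted in water and sprayed post-emergence at 150 g(a.i.)/ha when corn had 2 to 5 leaves, with 4 replicates on 20 m^2 plots. Control of Digitaria sanguinalis was scored on a 1-9 scale based on weed damage relative to the untreated blank area.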

[22] = system: Portulaca oleracea; assay: Field test for weed control in a corn field; conditions: 150 g a.i./ha, after treatment
In short: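 Post-emergence weed control was evaluated in a corn field by the GB/T 17980.42-2000 method. Emulsifiable concentrates (10%) in water were applied as sprays at 150 g(a.i.)/ha at the 2-5 leaf corn stage, in four replicate 20 m^2 plots. A 25% mesotrione oil dispersion served as control agent. Effects were graded 1-9 relative to weed remaining in blank control areas.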

[23] = system: Solanum nigrum; assay: Field test for weed control in a corn field; conditions: 150 g a.i./ha, 30 days after treatment
In short: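 In a corn field trial based on GB/T 17980.42-2000, 10% emulsifiable concentrates diluted in water were sprayed at 150 g(a.i.)/ha at the 2 to 5 leaf stage of corn. Each treatment used 20 m^2 plots and was repeated 4 times, with 25% mesotrione oil dispersion as the reference agent. Solanum nigrum damage was scored on a 1-9 scale against blank control plots.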

[24] = system: goosegrass; assay: Field test for weed control in a corn field; conditions: 150 g a.i./ha, after treatment
In short: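 In this field trial in corn, run per GB/T 17980.42-2000, test agents prepared as 10% emulsifiable concentrates were applied in water as sprays at 150 g(a.i.)/ha at the 2- to 5-leaf corn stage. Each treatment covered 20 m^2 and was repeated 4 times. Goosegrass control was scored 1-9 relative to weed remaining in blank control areas.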

[25] = system: green bristlegrass; assay: Field test for weed control in a corn field; conditions: 150 g a.i./ha, after treatment
In short: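 Herbicidal activity against green bristlegrass was assessed in corn field plots of 20 m^2 per GB/T 17980.42-2000. Test agents, formulated as 10% emulsifiable concentrates, were applied in water at 150 g(a.i.)/ha at the corn 2 leaves to 5 leaves stage, repeated 4 times. A 25% mesotrione oil dispersion served as the control agent, and weed damage was rated on levels 1-9.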

[26] = system: nutgrass flatsedge; assay: Field test for weed control in a corn field; conditions: 150 g a.i./ha, after treatment
In short: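 Herbicidal effect on nutgrass flatsedge was measured in a field planted with corn, using the GB/T 17980.42-2000 method. Emulsifiable concentrates (10%) in water were sprayed at 150 g(a.i.)/ha during the 2-leaf to 5-leaf corn stage, on 20 m^2 plots repeated 4 times. 25% mesotrione oil dispersion was the control agent. Activity was scored from 1 to 9 by weed remaining relative to blank control plots.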

Compound	Herbicidal Activity Barnyard grass [1]	Herbicidal Activity Piemarker [2]	Herbicidal Activity Green bristlegrass [3]	Herbicidal Activity Amaranthus retroflexus [4]	Herbicidal Activity Digitaria sanguinalis [5]	Herbicidal Activity Humulus scandens [6]	Herbicidal Activity Amaranthus retroflexus [7]	Herbicidal Activity Barnyard grass [8]	Herbicidal Activity Digitaria sanguinalis [9]	Herbicidal Activity Humulus scandens [10]	Herbicidal Activity Piemarker [11]	Herbicidal Activity Green bristlegrass [12]	Herbicidal activity 15 days after treatment Broadleaf weed [13]	Herbicidal activity 30 days after treatment Broadleaf weed [13]	Herbicidal activity 15 days after treatment Cyperaceae [14]	Herbicidal activity 30 days after treatment Cyperaceae [14]	Herbicidal activity 15 days after treatment Gramineae [15]	Herbicidal activity 30 days after treatment Gramineae [15]	Post-emergence weed control effect, Acalypha australis [16]	Post-emergence weed control effect, Amaranthus retroflexus [17]	further results
COc1ccc(OC)c(C(=O)NCc2cc(F)cc(Cl)c2)c1 [Compound A28]	1	1	1	1	1	2 (equivalent to 0 to 2.5% of the weed in the blank control area)	1	1	1	1	1	1	1	1	2 (equivalent to 0 to 2.5% of the weed in the blank control area)	1	2 (equivalent to 0 to 2.5% of the weed in the blank control area)	1	2 (equivalent to 0 to 2.5% of the weed in the blank control area)	1	Post-emergence weed control effect, Barnyard grass [18]: 1; Post-emergence weed control effect, Chenopodium album [19]: 1; Post-emergence weed control effect, Convolvulus arvensis [20]: 1; Post-emergence weed control effect, Digitaria sanguinalis [21]: 2 (equivalent to 0 to 2.5% of the weed in the blank control area); Post-emergence weed control effect, Portulaca oleracea [22]: 1; Post-emergence weed control effect, Solanum nigrum [23]: 2 (equivalent to 0 to 2.5% of the weed in the blank control area); Post-emergence weed control effect, Goose grass [24]: 2 (equivalent to 0 to 2.5% of the weed in the blank control area); Post-emergence weed control effect, Green bristlegrass [25]: 1; Post-emergence weed control effect, Nutgrass flatsedge [26]: 2 (equivalent to 0 to 2.5% of the weed in the blank control area)
COc1ccc(OC)c(C(=O)NCc2cc(Cl)cc(Cl)c2)c1 [Compound A29]	1	1	1	1	2 (equivalent to 0 to 2.5% of the weed in the blank control area)	2 (equivalent to 0 to 2.5% of the weed in the blank control area)	1	1	1	1	1	1	1	1	1	2 (equivalent to 0 to 2.5% of the weed in the blank control area)	2 (equivalent to 0 to 2.5% of the weed in the blank control area)	1	1	1	Post-emergence weed control effect, Barnyard grass [18]: 1; Post-emergence weed control effect, Chenopodium album [19]: 1; Post-emergence weed control effect, Convolvulus arvensis [20]: 2 (equivalent to 0 to 2.5% of the weed in the blank control area); Post-emergence weed control effect, Digitaria sanguinalis [21]: 2 (equivalent to 0 to 2.5% of the weed in the blank control area); Post-emergence weed control effect, Portulaca oleracea [22]: 1; Post-emergence weed control effect, Solanum nigrum [23]: 2 (equivalent to 0 to 2.5% of the weed in the blank control area); Post-emergence weed control effect, Goose grass [24]: 2 (equivalent to 0 to 2.5% of the weed in the blank control area); Post-emergence weed control effect, Green bristlegrass [25]: 2 (equivalent to 0 to 2.5% of the weed in the blank control area); Post-emergence weed control effect, Nutgrass flatsedge [26]: 2 (equivalent to 0 to 2.5% of the weed in the blank control area)
